Measurements taken from patent publication US10597388B2, “Pyridazinone herbicides” (FMC CORPORATION, priority 2014, dated 2020).

How the values were obtained:
Assay in all cases: Test C greenhouse herbicide test, pre- and postemergence
Format in all cases: in vivo
[1] = system: crabgrass, large (large crabgrass, Digitaria sanguinalis)
How it was run: (§1)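 Percent-control ratings (0 none, 100 complete) came from visual comparison with controls held alongside in the greenhouse for 13–15 d. Treatments covered soil application at sowing and foliar application to young plants 2–18 cm tall.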

[2] = system: corn (Zea mays)
How it was run: as §1

[3] = system: barnyardgrass (Echinochloa crus-galli)
How it was run: as §1

[4] = system: pigweed (Amaranthus retroflexus)
How it was run: as §1

[5] = system: ragweed (common ragweed, Ambrosia elatior)
How it was run: as §1

[6] = system: foxtail, giant (giant foxtail, Setaria faberii)
How it was run: as §1

[7] = system: galium (catchweed bedstraw, Galium aparine)
How it was run: as §1

[8] = system: nutsedge, yellow (yellow nutsedge, Cyperus esculentus)
How it was run: as §1

[9] = system: oilseed rape (Brassica napus)
How it was run: as §1

[10] = system: ryegrass, Italian (Italian ryegrass, Lolium multiflorum)
How it was run: as §1

[11] = system: lambsquarters (Chenopodium album)
How it was run: as §1

[12] = system: johnsongrass (Sorghum halepense)
How it was run: as §1

[13] = system: waterhemp (common waterhemp, Amaranthus rudis)
How it was run: as §1

[14] = system: velvetleaf (Abutilon theophrasti)
How it was run: as §1

[15] = system: morningglory (Ipomoea coccinea)
How it was run: as §1

[16] = system: blackgrass (Alopecurus myosuroides)
How it was run: as §1

[17] = Postemergence, 31 g ai/ha, 0 to 100 scale (0 no effect, 100 complete control)
[18] = Postemergence, 125 g ai/ha, scale 0 to 100, 0 is no effect, 100 is complete control
[19] = Postemergence, 250 g ai/ha, scale 0 to 100, 0 no effect, 100 complete control, 13 to 15 d
[20] = Preemergence, 31 g ai/ha, scale 0 to 100, 0 is no effect, 100 is complete control
[21] = Preemergence, 62 g ai/ha, scale 0 to 100, 0 is no effect, 100 is complete control
[22] = Preemergence, 125 g ai/ha, scale 0 to 100, 0 is no effect, 100 is complete control
[23] = Preemergence, 250 g ai/ha, scale 0 to 100 (0 no effect, 100 complete control)
[24] = postemergence, 62 g ai/ha, scale 0 to 100, 0 no effect, 100 complete control

Cc1cc(C)c2sc(C)c(-c3c(OC(=O)OC(C)C)c(C)nn(C)c3=O)c2c1 [Compound 67]
Crabgrass, Large plant response rating [1, 17]: 35 | Plant response rating, Crabgrass, Large [1, 18]: 35 | Plant response rating, Crabgrass, Large [1, 19]: 40 | Plant response rating, Crabgrass, Large [1, 20]: 10 | Plant response rating, Crabgrass, Large [1, 21]: 70 | Plant response rating, Crabgrass, Large [1, 22]: 10 | Crabgrass, Large plant response rating [1, 23]: 65 | Crabgrass, Large plant response rating [1, 24]: 35 | Corn plant response rating [2, 17]: 5 | Plant response rating, Corn [2, 18]: 10 | Plant response rating, Corn [2, 19]: 20 | Plant response rating, Corn [2, 20]: 0 | Plant response rating, Corn [2, 21]: 0 | Plant response rating, Corn [2, 22]: 0 | Corn plant response rating [2, 23]: 0 | Corn plant response rating [2, 24]: 5 | Barnyardgrass plant response rating [3, 17]: 25 | Plant response rating, Barnyardgrass [3, 18]: 35 | Plant response rating, Barnyardgrass [3, 19]: 45 | Plant response rating, Barnyardgrass [3, 20]: 5 | Plant response rating, Barnyardgrass [3, 21]: 20 | Plant response rating, Barnyardgrass [3, 22]: 40 | Barnyardgrass plant response rating [3, 23]: 80 | Barnyardgrass plant response rating [3, 24]: 35 | Pigweed plant response rating [4, 17]: 100 | Plant response rating, Pigweed [4, 18]: 80 | Plant response rating, Pigweed [4, 19]: 85 | Plant response rating, Pigweed [4, 20]: 75 | Plant response rating, Pigweed [4, 21]: 90 | Plant response rating, Pigweed [4, 22]: 95 | Pigweed plant response rating [4, 23]: 100 | Pigweed plant response rating [4, 24]: 85 | Ragweed plant response rating [5, 17]: 70 | Plant response rating, Ragweed [5, 18]: 98 | Plant response rating, Ragweed [5, 19]: 95 | Plant response rating, Ragweed [5, 20]: 60 | Plant response rating, Ragweed [5, 21]: 85 | Plant response rating, Ragweed [5, 22]: 100 | Ragweed plant response rating [5, 23]: 98 | Ragweed plant response rating [5, 24]: 75 | Foxtail, Giant plant response rating [6, 17]: 70 | Plant response rating, Foxtail, Giant [6, 18]: 80 | Plant response rating, Foxtail, Giant [6, 19]: 85 | Plant response rating, Foxtail, Giant [6, 20]: 75 | Plant response rating, Foxtail, Giant [6, 21]: 80 | Plant response rating, Foxtail, Giant [6, 22]: 98 | Foxtail, Giant plant response rating [6, 23]: 100 | Foxtail, Giant plant response rating [6, 24]: 75 | Galium plant response rating [7, 17]: 90 | Plant response rating, Galium [7, 18]: 95 | Plant response rating, Galium [7, 19]: 90 | Plant response rating, Galium [7, 20]: 70 | Plant response rating, Galium [7, 21]: 90 | Plant response rating, Galium [7, 22]: 90 | Galium plant response rating [7, 23]: 90 | Galium plant response rating [7, 24]: 95 | Nutsedge, Yellow plant response rating [8, 17]: 65 | Plant response rating, Nutsedge, Yellow [8, 18]: 80 | Plant response rating, Nutsedge, Yellow [8, 19]: 85 | Plant response rating, Nutsedge, Yellow [8, 20]: 10 | Plant response rating, Nutsedge, Yellow [8, 21]: 20 | Plant response rating, Nutsedge, Yellow [8, 22]: 55 | Nutsedge, Yellow plant response rating [8, 23]: 70 | Nutsedge, Yellow plant response rating [8, 24]: 70 | Oilseed Rape plant response rating [9, 17]: 40 | Plant response rating, Oilseed Rape [9, 18]: 75 | Plant response rating, Oilseed Rape [9, 19]: 75 | Plant response rating, Oilseed Rape [9, 20]: 0 | Plant response rating, Oilseed Rape [9, 21]: 0 | Plant response rating, Oilseed Rape [9, 22]: 0 | Oilseed Rape plant response rating [9, 23]: 20 | Oilseed Rape plant response rating [9, 24]: 50 | Ryegrass, Italian plant response rating [10, 17]: 80 | Plant response rating, Ryegrass, Italian [10, 18]: 85 | Plant response rating, Ryegrass, Italian [10, 19]: 85 | Plant response rating, Ryegrass, Italian [10, 20]: 30 | Plant response rating, Ryegrass, Italian [10, 21]: 40 | Plant response rating, Ryegrass, Italian [10, 22]: 85 | Ryegrass, Italian plant response rating [10, 23]: 90 | Ryegrass, Italian plant response rating [10, 24]: 80 | Lambsquarters plant response rating [11, 17]: 85 | Plant response rating, Lambsquarters [11, 18]: 90 | Plant response rating, Lambsquarters [11, 19]: 100 | Plant response rating, Lambsquarters [11, 20]: 80 | Plant response rating, Lambsquarters [11, 21]: 80 | Plant response rating, Lambsquarters [11, 22]: 85 | Lambsquarters plant response rating [11, 23]: 85 | Lambsquarters plant response rating [11, 24]: 95 | Johnsongrass plant response rating [12, 17]: 5 | Plant response rating, Johnsongrass [12, 18]: 5 | Plant response rating, Johnsongrass [12, 19]: 10 | Plant response rating, Johnsongrass [12, 20]: 10 | Plant response rating, Johnsongrass [12, 21]: 20 | Plant response rating, Johnsongrass [12, 22]: 10 | Johnsongrass plant response rating [12, 23]: 30 | Johnsongrass plant response rating [12, 24]: 5 | Waterhemp plant response rating [13, 17]: 60 | Plant response rating, Waterhemp [13, 18]: 75 | Plant response rating, Waterhemp [13, 19]: 70 | Plant response rating, Waterhemp [13, 20]: 70 | Plant response rating, Waterhemp [13, 21]: 80 | Plant response rating, Waterhemp [13, 22]: 65 | Waterhemp plant response rating [13, 23]: 85 | Waterhemp plant response rating [13, 24]: 70 | Velvetleaf plant response rating [14, 17]: 70 | Plant response rating, Velvetleaf [14, 18]: 85 | Plant response rating, Velvetleaf [14, 19]: 98 | Plant response rating, Velvetleaf [14, 20]: 10 | Plant response rating, Velvetleaf [14, 21]: 35 | Plant response rating, Velvetleaf [14, 22]: 60 | Velvetleaf plant response rating [14, 23]: 75 | Velvetleaf plant response rating [14, 24]: 85 | Morningglory plant response rating [15, 17]: 95 | Plant response rating, Morningglory [15, 18]: 100 | Plant response rating, Morningglory [15, 19]: 100 | Plant response rating, Morningglory [15, 20]: 70 | Plant response rating, Morningglory [15, 21]: 80 | Plant response rating, Morningglory [15, 22]: 80 | Morningglory plant response rating [15, 23]: 90 | Morningglory plant response rating [15, 24]: 95 | Blackgrass plant response rating [16, 17]: 40 | Plant response rating, Blackgrass [16, 18]: 65 | Plant response rating, Blackgrass [16, 19]: 80 | Plant response rating, Blackgrass [16, 20]: 60 | Plant response rating, Blackgrass [16, 21]: 30 | Plant response rating, Blackgrass [16, 22]: 40 | Blackgrass plant response rating [16, 23]: 60 | Blackgrass plant response rating [16, 24]: 60
